Assay results reported in patent US6777434B2, “Thiazolidine-4-one derivative, method for preparing the same, and pharmaceutical composition containing the same” (CJ Corp., priority 2002, dated 2004).

Experiments:
[1] = biological target: T1, COX-1 (Homo sapiens, UniProt P23219); assay: Assay for the COX-1 inhibitory activity using U-937 (PGE2 inhibition); format: cell-based; details: 1 μM test compound; U-937 human lymphoma cells; PGE2 after arachidonic acid; read-out: Cyclooxygenase (COX) Inhibition (%) COX-1 (1 μM)
T1 construct: host or cells: U-937 human lymphoma cells
Description: The collected cells were diluted with HBSS (×1, Hank's balanced salt solution) to a concentration of 1×10^6 cells/ml. 1 ml of the dilute cell solution was placed into each well of 12-well plates. 5 μl of 1 μM solution of a test compound in DMSO and 5 μl of DMSO as a control were added to the wells. The wells were incubated in CO2 incubator at 37° C. for 15 minutes. Separately, 10 mM stock solution of arachidonic acid in ethanol was diluted ten times in ethanol to prepare 1 mM solution of arachidonic acid. Arachidonic acid acts as a substrate. 10 μl of the 1 mM solution of arachidonic acid was added to each well and incubated at CO2 incubator at 37° C. for 30 minutes. The cell solution of each well was placed in a centrifuge test tube and centrifuged at 10,000 rpm at 4° C. for 5 minutes. The concentration of PGE2 in the collected cells and the supernatant was quantified by means of a monoclonal kit (Cayman Chemicals). The percentages of PGE2 inhibition in a group of the test compound-treated cells in relation to a group of the DMSO-treated cells were calculated. Based on the calculated values, the COX-1 inhibitory activities were evaluated.
(§1) The percentages of the COX inhibition were calculated according to the following equation:
(§2) % Inhibition=(concentration of PGE2 in test compound-untreated sample−concentration of PGE2 in test compound-treated sample)/(concentration of PGE2 in test compound-untreated sample)×100

[2] = biological target: T2, COX-2 (Mus musculus, UniProt Q05769); assay: Assay for the COX-2 inhibitory activity using RAW 264.7 cell line (PGE2 inhibition); format: cell-based; details: for COX-2 inhibitory activity compared with the reference: 10 nM, RAW 264.7, comparison with Valdecoxib; for inhibition (%) ratio of COX-2 to COX-1 compared with the reference Valdecoxib: COX-2 at 10 nM (RAW 264.7) versus COX-1 at 1 μM (U-937); for inhibition at 0.01 µM: RAW264.7, 10 nM test compound, RAW 264.7 cells, interferon and LPS, 18 hours, PGE2 by EIA, read-out: Cyclooxygenase (COX) Inhibition (%) COX-2 (10 nM)
T2 construct: host or cells: RAW 264.7 cells, pre-treated with aspirin, then induced with interferon and LPS
T2 sequence (Q05769 18-604): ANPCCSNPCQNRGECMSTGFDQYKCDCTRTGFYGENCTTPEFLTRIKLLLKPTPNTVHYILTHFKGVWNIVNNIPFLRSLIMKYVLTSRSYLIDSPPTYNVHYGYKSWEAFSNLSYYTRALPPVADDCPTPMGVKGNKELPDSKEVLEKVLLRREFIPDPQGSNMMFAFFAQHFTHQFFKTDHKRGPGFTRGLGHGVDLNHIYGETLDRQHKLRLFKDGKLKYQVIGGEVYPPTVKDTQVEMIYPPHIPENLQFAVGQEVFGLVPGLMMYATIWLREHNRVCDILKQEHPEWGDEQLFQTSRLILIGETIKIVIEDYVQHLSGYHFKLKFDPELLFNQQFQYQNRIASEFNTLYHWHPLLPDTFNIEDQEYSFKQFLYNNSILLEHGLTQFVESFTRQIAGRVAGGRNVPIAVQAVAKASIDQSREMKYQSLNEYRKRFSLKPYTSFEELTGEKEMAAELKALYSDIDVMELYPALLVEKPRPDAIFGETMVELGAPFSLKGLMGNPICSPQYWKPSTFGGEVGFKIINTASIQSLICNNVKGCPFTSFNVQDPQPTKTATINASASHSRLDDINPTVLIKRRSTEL
Description: Each well was treated with 250 μM of aspirin and incubated at 37° C. for 2 hours. After the culture media were replaced with new culture media, the new culture media were treated with a test compound (10 nM) and incubated for 30 minutes. Then, each well was treated with interferon ? (100 units/ml) and lipopolysaccharide (LPS, 100 ng/ml) and incubated for 18 hours. The culture media were transferred to another test tubes. The concentration of PGE2 was quantified by means of the EIA kit (Cayman Chemicals):
as §1, §2

T1 sequence (P23219 24-599): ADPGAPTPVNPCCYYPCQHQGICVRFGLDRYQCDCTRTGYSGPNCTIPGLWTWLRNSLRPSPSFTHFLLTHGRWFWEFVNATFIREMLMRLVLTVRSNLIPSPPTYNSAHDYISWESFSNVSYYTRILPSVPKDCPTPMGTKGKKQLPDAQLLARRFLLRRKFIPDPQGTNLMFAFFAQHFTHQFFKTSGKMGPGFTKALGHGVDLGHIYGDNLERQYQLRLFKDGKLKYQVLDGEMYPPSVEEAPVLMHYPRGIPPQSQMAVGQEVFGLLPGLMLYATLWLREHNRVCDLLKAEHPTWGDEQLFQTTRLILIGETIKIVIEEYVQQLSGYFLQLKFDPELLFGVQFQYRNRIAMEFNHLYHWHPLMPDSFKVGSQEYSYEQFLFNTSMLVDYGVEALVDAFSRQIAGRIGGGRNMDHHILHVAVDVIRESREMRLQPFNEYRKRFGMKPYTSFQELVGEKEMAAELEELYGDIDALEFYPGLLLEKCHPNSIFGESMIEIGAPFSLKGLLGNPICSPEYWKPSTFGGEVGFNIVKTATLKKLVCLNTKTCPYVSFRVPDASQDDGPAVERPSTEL

Row | inhibition at 1 µM [1] | COX-2 inhibitory activity compared with the reference [2] | inhibition at 0.01 µM [2] | SMILES | inhibition (%) ratio of COX-2 to COX-1 compared with the reference Valdecoxib [2]
1 | 29.2% | significantly higher than the reference | 16% | Cc1ccc(N2C(=O)CSC2c2ccc(S(C)(=O)=O)cc2)cc1F (stereo not drawn) [Example 2, 3-(3-fluoro-4-methylphenyl)-2-(4-methanesulfonylphenyl)thiazolidine-4-one] | significantly higher than that in the reference
2 | 26% | significantly higher than the reference | 16% | CS(=O)(=O)c1ccc(C2SCC(=O)N2c2ccccc2)cc1 (stereo not drawn) [Example 4, 2-(4-methanesulfonylphenyl)-3-phenylthiazolidine-4-one] | significantly higher than that in the reference
3 | 10.1% |  | 6.54% | CS(=O)(=O)c1ccc(C2SCC(=O)N2c2ccc(C#N)cc2)cc1 (stereo not drawn) [Example 5, 3-(4-cyanophenyl)-2-(4-methanesulfonylphenyl)thiazolidine-4-one] | significantly higher than that in the reference
4 | 38% | significantly higher than the reference | 12.1% | CS(=O)(=O)c1ccc(C2SCC(=O)N2c2cc(F)cc(F)c2)cc1 (stereo not drawn) [Example 6, 3-(3,5-difluorophenyl)-2-(4-methanesulfonylphenyl)thiazolidine-4-one] | significantly higher than that in the reference
